In brackets after ≈: the same amount, converted by molar mass.

For nine compounds, MIC results are on record in DBAASP.

Common to all, as to assay: ≥ marks a high value that may be exact or a test limit, other limits are often not marked, values filed in µg/mL are converted to µM
Assay [1] concerns Escherichia coli BL21.
Assay [2] deals with Pseudomonas aeruginosa PAO1.
For assay [3], the system named is Staphylococcus aureus USA 300.
The test system of assay [4] is Streptococcus pyogenes M1T1 5448.
The subject of assay [5] is Escherichia coli ATCC 25922.
Assay [6] concerns Listeria monocytogenes EGD.
Assay [7] has as its system Pseudomonas aeruginosa ATCC 27853.
Assay [8] has as its system Staphylococcus aureus ATCC 25923.
The subject of assay [9] is Batrachochytrium dendrobatidis JEL-197.
In assay [10] the test system is Bacillus subtilis ATCC 6633.
The subject of assay [11] is Klebsiella pneumoniae ATCC 10031.
The test system of assay [12] is Salmonella enterica subsp. enterica serovar Typhimurium ATCC 14028.
In assay [13] the test system is Shigella dysenteriae ATCC 9752.
The test system of assay [14] is Staphylococcus aureus ATCC 6538P.
The test system of assay [15] is Staphylococcus epidermidis ATCC 12228.
Assay [16] has as its system Acinetobacter baumannii.
The test system of assay [17] is Enterococcus faecium.
Assay [18] relates to Klebsiella pneumoniae.
The test system of assay [19] is Pseudomonas aeruginosa.
The subject of assay [20] is Staphylococcus aureus ATCC 43300.
Assay [21] has as its system Streptococcus pneumoniae.
In assay [22] the test system is Acinetobacter baumannii ATCC 7978.
Assay [23] relates to Candida albicans ATCC 10231.
Assay [24] deals with Klebsiella aerogenes ATCC 13048.
The subject of assay [25] is Klebsiella pneumoniae WGLW2.
The test system of assay [26] is Staphylococcus aureus ATCC 29231.
The subject of assay [27] is Enterococcus faecium ATCC 700221.
In assay [28] the test system is Staphylococcus aureus ATCC 33591.
Assay [29] has as its system Micrococcus luteus ATCC 10240.

As for `CC[C@H](C)[C@H](NC(=O)[C@H](CCCCN)NC(=O)[C@H](CCCCN)NC(=O)CNC(=O)[C@H](CCC(=O)O)NC(=O)[C@H](CCC(N)=O)NC(=O)[C@@H](NC(=O)[C@@H](NC(=O)[C@H](CCCCN)NC(=O)[C@H](CCCCN)NC(=O)[C@H](CC(C)C)NC(=O)[C@H](CCCN=C(N)N)NC(=O)[C@H](CCC(N)=O)NC(=O)[C@H](Cc1ccccc1)NC(=O)[C@@H](NC(=O)[C@H](CCCCN)NC(=O)[C@H](CCC(=O)O)NC(=O)[C@H](CCCCN)NC(=O)CNC(=O)[C@H](C)N)[C@@H](C)CC)[C@@H](C)O)[C@@H](C)CC)C(=O)N[C@@H](C)C(=O)N[C@@H](CCCCN)C(=O)N[C@@H](CCCN=C(N)N)C(=O)N[C@@H](C)C(=O)N[C@@H](Cc1c[nH]c2ccccc12)C(=O)O` [AGKEKIFQRLKKTIQEGKKIAKRAW], the MIC in [1] is 16 µM (≈ 47.3 µg/mL); in assay [2], 64 µM (≈ 189 µg/mL); in [3], 4 µM (≈ 11.8 µg/mL); in assay [4], at least 128 µM.

With `CC(C)C[C@H](NC(=O)[C@H](CC(C)C)NC(=O)[C@H](CCCCN)NC(=O)[C@@H](NC(=O)[C@@H](NC(=O)[C@H](CO)NC(=O)[C@H](CCCCN)NC(=O)[C@H](Cc1ccccc1)NC(=O)[C@@H](NC(=O)[C@@H](N)CCCCN)C(C)C)C(C)C)C(C)C)C(=O)N[C@@H](CCC(=O)O)C(=O)N[C@@H](CCCCN)C(=O)N[C@H](C(=O)N[C@H](C(=O)N[C@@H](CC(C)C)C(=O)N[C@@H](CCCCN)C(=O)N[C@@H](CCCCN)C(=O)N[C@@H](Cc1ccccc1)C(=O)N[C@@H](CO)C(=O)N[C@@H](CCCCN)C(N)=O)C(C)C)[C@@H](C)O` [KVFKSVVKLLEKTVLKKFSK], the minimal inhibitory concentration (MIC) in assay [5] is 64 µM (≈ 150 µg/mL); in [6] it was at least 32 µM; in assay [7], 32 µM (≈ 75.2 µg/mL); in assay [8] it was 64 µM (≈ 150 µg/mL).

Take `CC[C@H](C)[C@@H]1NC(=O)[C@H](C)NC(=O)[C@@H](NC(=O)[C@H](Cc2ccccc2)NC(=O)[C@@H](NC(=O)[C@H](CCCCN)NC(=O)[C@@H]2CCCN2C(=O)[C@H](CC(C)C)NC(=O)[C@H](Cc2ccccc2)NC(=O)[C@H](CCC(N)=O)NC(=O)CNC(=O)[C@H](C)NC(=O)[C@H](C)NC(=O)CNC(=O)[C@@H](NC(=O)[C@@H](NC(=O)[C@H](C)NC(=O)[C@@H]2CCCN2C(=O)[C@H](CC(C)C)NC(=O)[C@@H](N)Cc2ccccc2)[C@@H](C)CC)C(C)C)[C@@H](C)CC)CSSC[C@@H](C(=O)O)NC(=O)[C@H](CCCCN)NC(=O)[C@H](CCCCN)NC(=O)[C@H](CO)NC1=O` [FLPAIVGAAGQFLPKIFCAISKKC]: the MIC is at least 40 µM in assay [9] and 55 µM (≈ 139 µg/mL) in assay [5].

As to `CC(=O)N[C@@H](CCCCN)C(=O)N[C@@H](C)C(=O)N[C@@H](C)C(=O)N[C@@H](CCCCN)C(=O)N[C@@H](C)C(=O)N[C@@H](C)C(=O)N[C@@H](CCCCN)C(=O)N[C@@H](CCCCN)C(=O)N[C@@H](C)C(=O)N[C@@H](C)C(=O)N[C@@H](CCCCN)C(=O)N[C@@H](C)C(=O)N[C@@H](C)C(=O)N[C@@H](Cc1c[nH]c2ccccc12)C(=O)N[C@@H](CCCCN)C(N)=O` [KAAKAAKKAAKAAWK], the minimal inhibitory concentration (MIC) in assay [10] was at least 130 µM; in assay [5], 130 µM (≈ 205 µg/mL); in assay [11] it was at least 130 µM; in [7], 130 µM (≈ 205 µg/mL); in [12], 130 µM (≈ 205 µg/mL); in assay [13] it was at least 130 µM. Further, the MIC in [14] is at least 130 µM; in [15] it was 130 µM (≈ 205 µg/mL).

In assay [9], `CC[C@H](C)[C@H](NC(=O)[C@H](CCCCN)NC(=O)CNC(=O)[C@H](Cc1ccccc1)NC(=O)[C@H](CC(C)C)NC(=O)[C@@H](N)CC(C)C)C(=O)N[C@H](C(=O)N[C@@H](CO)C(=O)N[C@@H](CCCN=C(N)N)C(=O)N[C@@H](CC(C)C)C(=O)N[C@@H](CC(C)C)C(=O)NCC(=O)N[C@@H](CC(N)=O)C(=O)O)[C@@H](C)CC` [LLFGKIISRLLGN] had an MIC of at least 250 µM.

Regarding `CC[C@H](C)[C@H](NC(=O)[C@H](Cc1cnc[nH]1)NC(=O)CNC(=O)CN)C(=O)N[C@@H](CCCN=C(N)N)C(=O)N[C@@H](CCCN=C(N)N)C(=O)N[C@H](C(=O)N[C@H](C(=O)N[C@@H](CCCN=C(N)N)C(=O)N[C@@H](CCCCN)C(=O)N[C@H](C(=O)N[C@H](C(=O)N[C@@H](Cc1cnc[nH]1)C(=O)N[C@H](C(=O)N[C@H](C(=O)N[C@@H](CCCCN)C(=O)N[C@@H](CCCCN)C(N)=O)[C@@H](C)CC)[C@@H](C)CC)[C@@H](C)CC)[C@@H](C)CC)[C@@H](C)CC)[C@@H](C)CC` [GGHIRRIIRKIIHIIKK], the minimal inhibitory concentration (MIC) in [16] was 5.3 µM (≈ 10.9 µg/mL); in [17], 8 µM (≈ 16.4 µg/mL); in assay [5], over 16 µM; in assay [18] it was 16 µM (≈ 32.8 µg/mL); in [19] it was over 16 µM; in assay [20], 16 µM (≈ 32.8 µg/mL). In assay [21], this compound gave a minimum inhibitory concentration (MIC) of 8 µM (≈ 16.4 µg/mL).

With `CC[C@H](C)[C@H](NC(=O)[C@H](CCCCN)NC(=O)[C@H](CCCCN)NC(=O)[C@@H](N)CC(C)C)C(=O)NCC(=O)N[C@@H](CCCCN)C(=O)N[C@@H](CCCCN)C(=O)N[C@H](C(=O)N[C@@H](Cc1c[nH]c2ccccc12)C(=O)N[C@@H](CCCN=C(N)N)C(=O)N[C@H](C(=O)NCC(=O)N[C@@H](Cc1c[nH]c2ccccc12)C(=O)N[C@@H](CC(N)=O)C(=O)N[C@@H](Cc1c[nH]c2ccccc12)C(=O)N[C@@H](CCCN=C(N)N)C(=O)O)C(C)C)[C@@H](C)CC` [LKKIGKKIWRVGWNWR], the MIC is 16.1 µM (≈ 33.4 µg/mL) in [22]; 61.9 µM (≈ 128 µg/mL) in [23]; at least 61.9 µM in assay [24]; at least 32.3 µM in assay [25]; at least 61.9 µM in [26].

Regarding `CC[C@H](C)[C@H](NC(=O)[C@H](CCCCN)NC(=O)[C@H](CCCCN)NC(=O)[C@H](CC(C)C)NC(=O)[C@@H](NC(=O)[C@H](CCCCN)NC(=O)[C@H](CCCCN)NC(=O)[C@@H](NC(=O)[C@@H](NC(=O)[C@H](CC(=O)O)NC(=O)[C@H](Cc1ccccc1)NC(=O)[C@H](CC(C)C)NC(=O)CN)C(C)C)[C@@H](C)CC)C(C)C)C(=O)NCC(=O)NCC(=O)N[C@@H](CC(C)C)C(N)=O` [GLFDVIKKVLKKIGGL], the MIC was 6.3 µM (≈ 10.9 µg/mL) in assay [27], 6.3 µM (≈ 10.9 µg/mL) in assay [5], 50 µM (≈ 86.4 µg/mL) in assay [7] and 12.5 µM (≈ 21.6 µg/mL) in assay [28].

Turning to `CC(C)C[C@H](NC(=O)[C@H](Cc1c[nH]c2ccccc12)NC(=O)CNC(=O)[C@H](CC(C)C)NC(=O)[C@@H](N)Cc1ccccc1)C(=O)N[C@@H](Cc1ccccc1)C(=O)N[C@@H](CCCCN)C(=O)N[C@@H](Cc1c[nH]c2ccccc12)C(=O)N[C@@H](C)C(=O)N[C@@H](CO)C(=O)N[C@@H](CCCCN)C(N)=O` [FLGWLFKWASK], the minimal inhibitory concentration (MIC) in assay [10] is 18.1 µM (≈ 25 µg/mL); in assay [5] it was 36.2 µM (≈ 50 µg/mL); in [11], at least 36.2 µM; in assay [29], 9.04 µM (≈ 12.5 µg/mL); in assay [7], 145 µM (≈ 200 µg/mL); in assay [12], 145 µM (≈ 200 µg/mL). For the same compound, the minimal inhibitory concentration (MIC) in [13] was 18.1 µM (≈ 25 µg/mL); in assay [14] it was 18.1 µM (≈ 25 µg/mL); in assay [15], 36.2 µM (≈ 50 µg/mL).
